# Values quoted from earlier work, collected in patent publication US20100233107A1, “MEDICATED TONING LOTION” (priority 2009, published 2010).
smiles,measurement,setting,value
O=C(O)c1ccccc1O [salicylic acid],solubility in water,,approximately 0.2 % by weight
same,volume of water in which one gram dissolves,one gram of salicylic acid,460 mL
